Source: US6699880B1 (priority 1999, dated 2004)

Biological target: T1, human m4 receptor (Homo sapiens, UniProt P08173)
T1 construct: expressed in transfected cells
T1 sequence (P08173 1-479): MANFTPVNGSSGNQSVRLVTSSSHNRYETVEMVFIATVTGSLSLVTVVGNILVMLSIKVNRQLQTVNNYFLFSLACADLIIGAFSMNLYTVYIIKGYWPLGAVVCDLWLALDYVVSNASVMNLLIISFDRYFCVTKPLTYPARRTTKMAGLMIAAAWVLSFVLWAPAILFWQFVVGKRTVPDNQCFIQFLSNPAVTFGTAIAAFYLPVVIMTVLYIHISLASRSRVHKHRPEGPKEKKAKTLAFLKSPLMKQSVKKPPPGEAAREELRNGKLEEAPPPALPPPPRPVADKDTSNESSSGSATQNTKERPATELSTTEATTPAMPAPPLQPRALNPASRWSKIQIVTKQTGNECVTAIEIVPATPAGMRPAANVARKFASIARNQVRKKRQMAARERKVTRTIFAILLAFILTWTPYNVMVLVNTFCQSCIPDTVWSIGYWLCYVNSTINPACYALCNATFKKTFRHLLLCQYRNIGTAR
Assay type: cell-based
Conditions: 0.01 µM

| SMILES | Agonist Activity (%) (M4 Receptors-Stimulating Activity) |
| --- | --- |
| C#CCn1c(=O)n(C2CCN(C3CCN(C(=O)OC)CC3)CC2)c2ccccc21 [Example 1, 1-[1-(1-methoxycarbonylpiperidin-4-yl)-piperidin-4-yl]-3-(2-propinyl)-1,3-dihydro-2H-benzimidazol-2-one] | 91 |
| C=CCn1c(=O)n(C2CCN(C3CCN(C(=O)OC)CC3)CC2)c2ccccc21 [Example 2, 1-[1-(1-methoxycarbonylpiperidin-4-yl)-piperidin-4-yl]-3-(2-propenyl)-1,3-dihydro-2H-benzimidazol-2-one] | 96 |
| CCCCn1c(=O)n(C2CCN(C3CCN(C(=O)OC)CC3)CC2)c2ccccc21 [Example 3, 1-[1-(1-methoxycarbonylpiperidin-4-yl)-piperidin-4-yl]-3-n-butyl-1,3-dihydro-2H-benzimidazol-2-one] | 101 |
| COC(=O)N1CCC(N2CCC(n3c(=O)n(C)c4ccccc43)CC2)CC1 [Example 4, 1-[1-(1-methoxycarbonylpiperidin-4-yl)-piperidin-4-yl]-3-methyl-1,3-dihydro-2H-benzimidazol-2-one] | 96 |
| COC(=O)N1CCC(N2CCC(n3c(=O)n(CC(F)(F)F)c4ccccc43)CC2)CC1 [Example 5, 1-[1-(1-methoxycarbonylpiperidin-4-yl)-piperidin-4-yl]-3-(2,2,2-trifluoroethyl)-1,3-dihydro-2H-benzimidazol-2-one] | 90 |
| COC(=O)Cn1c(=O)n(C2CCN(C3CCN(C(=O)OC)CC3)CC2)c2ccccc21 [Example 6, 1-[1-(1-methoxycarbonylpiperidin-4-yl)-piperidin-4-yl]-3-(methoxycarbonylmethyl)-1,3-dihydro-2H-benzimidazol-2-one] | 92 |
| COC(=O)N1CCC(N2CCC(n3c(=O)n(CC(C)=O)c4ccccc43)CC2)CC1 [Example 7, 1-[1-(1-methoxycarbonylpiperidin-4-yl)-piperidin-4-yl]-3-(2-oxopropyl)-1,3-dihydro-2H-benzimidazol-2-one] | 97 |
| COC(=O)N1CCC(N2CCC(n3c(=O)n(CCN)c4ccccc43)CC2)CC1 [Example 8, 1-[1-(1-methoxycarbonylpiperidin-4-yl)-piperidin-4-yl]-3-(2-aminoethyl)-1,3-dihydro-2H-benzimidazol-2-one] | 95 |
| COC(=O)N1CCC(N2CCC(n3c(=O)n(C(C)=O)c4ccccc43)CC2)CC1 [Example 12, 1-[1-(1-methoxycarbonylpiperidin-4-yl)-piperidin-4-yl]-3-acetyl-1,3-dihydro-2H-benzimidazol-2-one] | 95 |
| CCOC(=O)N1CCC(N2CCC(n3c(=O)n(S(C)(=O)=O)c4ccccc43)CC2)CC1 [Example 20, 1-[1-(1-ethoxycarbonylpiperidin-4-yl)-piperidin-4-yl]-3-(methylsulfonyl)-1,3-dihydro-2H-benzimidazol-2-one] | 94 |
